Measured values as given in the NIST ThermoML archive (doi:10.1021/je060475r).
Numbers after ± are expanded uncertainties.

Assay: xn = mol fraction of the nth substance listed
Conditions: 101 kPa, Liquid

O=CN1CCOCC1 [N-formylmorpholine] + Cc1ccccc1
Conditions | mass density [kg/m3] | viscosity [mPa·s]
298.15 K, x2 = 0 | 1146.06 ± 1.5 | 7.955 ± 0.31
298.15 K, x2 = 0.0997 | 1118.85 ± 1.3 | 6.045 ± 0.25
298.15 K, x2 = 0.1857 | 1095.98 ± 1.1 | 4.343 ± 0.19
298.15 K, x2 = 0.2987 | 1064.62 ± 0.94 | 3.106 ± 0.14
298.15 K, x2 = 0.3979 | 1036.62 ± 0.76 | 2.334 ± 0.11
298.15 K, x2 = 0.4996 | 1007.87 ± 0.57 | 1.769 ± 0.082
298.15 K, x2 = 0.5993 | 979.41 ± 0.65 | 1.376 ± 0.065
298.15 K, x2 = 0.701 | 949.94 ± 0.83 | 1.064 ± 0.052
298.15 K, x2 = 0.8004 | 920.72 ± 1 | 0.846 ± 0.043
298.15 K, x2 = 0.9 | 891.62 ± 1.2 | 0.681 ± 0.036
303.15 K, x2 = 0 | 1141.7 ± 1.4 | 6.877 ± 0.28
303.15 K, x2 = 0.0997 | 1114.45 ± 1.3 | 5.223 ± 0.22
303.15 K, x2 = 0.1857 | 1091.57 ± 1.1 | 3.824 ± 0.17
303.15 K, x2 = 0.2987 | 1060.17 ± 0.91 | 2.771 ± 0.12
303.15 K, x2 = 0.3979 | 1032.11 ± 0.73 | 2.116 ± 0.097
303.15 K, x2 = 0.4996 | 1003.25 ± 0.54 | 1.614 ± 0.076
303.15 K, x2 = 0.5993 | 974.76 ± 0.68 | 1.261 ± 0.061
303.15 K, x2 = 0.701 | 945.23 ± 0.86 | 0.994 ± 0.049
303.15 K, x2 = 0.8004 | 916.11 ± 1 | 0.79 ± 0.04
303.15 K, x2 = 0.9 | 887 ± 1.2 | 0.636 ± 0.034
313.15 K, x2 = 0 | 1132.96 ± 1.4 | 5.214 ± 0.22
313.15 K, x2 = 0.0997 | 1105.62 ± 1.2 | 4.037 ± 0.18
313.15 K, x2 = 0.1857 | 1082.68 ± 1.1 | 3.035 ± 0.14
313.15 K, x2 = 0.2987 | 1051.22 ± 0.85 | 2.248 ± 0.1
313.15 K, x2 = 0.3979 | 1022.87 ± 0.67 | 1.754 ± 0.082
313.15 K, x2 = 0.4996 | 993.89 ± 0.56 | 1.323 ± 0.063
313.15 K, x2 = 0.5993 | 965.36 ± 0.73 | 1.076 ± 0.053
313.15 K, x2 = 0.701 | 935.9 ± 0.91 | 0.854 ± 0.043
313.15 K, x2 = 0.8004 | 906.8 ± 1.1 | 0.69 ± 0.036
313.15 K, x2 = 0.9 | 877.53 ± 1.3 | 0.569 ± 0.031
323.15 K, x2 = 0 | 1124.33 ± 1.3 | 4.08 ± 0.18
323.15 K, x2 = 0.0997 | 1096.88 ± 1.2 | 3.219 ± 0.14
323.15 K, x2 = 0.1857 | 1073.89 ± 1 | 2.475 ± 0.11
323.15 K, x2 = 0.2987 | 1042.33 ± 0.8 | 1.864 ± 0.086
323.15 K, x2 = 0.3979 | 1013.75 ± 0.61 | 1.471 ± 0.07
323.15 K, x2 = 0.4996 | 984.5 ± 0.62 | 1.13 ± 0.055
323.15 K, x2 = 0.5993 | 955.91 ± 0.79 | 0.929 ± 0.046
323.15 K, x2 = 0.701 | 926.58 ± 0.97 | 0.747 ± 0.038
323.15 K, x2 = 0.8004 | 897.51 ± 1.1 | 0.613 ± 0.033
323.15 K, x2 = 0.9 | 868.21 ± 1.3 | 0.508 ± 0.028
333.15 K, x2 = 0 | 1115.63 ± 1.3 | 3.284 ± 0.15
333.15 K, x2 = 0.0997 | 1088.08 ± 1.1 | 2.622 ± 0.12
333.15 K, x2 = 0.1857 | 1065 ± 0.95 | 2.057 ± 0.094
333.15 K, x2 = 0.2987 | 1033.38 ± 0.74 | 1.576 ± 0.074
333.15 K, x2 = 0.3979 | 1004.52 ± 0.56 | 1.259 ± 0.06
333.15 K, x2 = 0.4996 | 975.06 ± 0.68 | 0.979 ± 0.048
333.15 K, x2 = 0.5993 | 946.52 ± 0.85 | 0.813 ± 0.041
333.15 K, x2 = 0.701 | 917.23 ± 1 | 0.66 ± 0.035
333.15 K, x2 = 0.8004 | 888.11 ± 1.2 | 0.544 ± 0.03
333.15 K, x2 = 0.9 | 858.77 ± 1.4 | 0.453 ± 0.026
343.15 K, x2 = 0 | 1107.96 ± 1.2 | 2.707 ± 0.12
343.15 K, x2 = 0.0997 | 1080.32 ± 1.1 | 2.189 ± 0.1
343.15 K, x2 = 0.1857 | 1057.15 ± 0.9 | 1.748 ± 0.081
343.15 K, x2 = 0.2987 | 1025.32 ± 0.69 | 1.353 ± 0.064
343.15 K, x2 = 0.3979 | 996.41 ± 0.55 | 1.096 ± 0.053
343.15 K, x2 = 0.4996 | 966.84 ± 0.73 | 0.888 ± 0.045
343.15 K, x2 = 0.5993 | 938.07 ± 0.9 | 0.72 ± 0.037
343.15 K, x2 = 0.701 | 908.7 ± 1.1 | 0.59 ± 0.032
343.15 K, x2 = 0.8004 | 879.44 ± 1.3 | 0.49 ± 0.027
343.15 K, x2 = 0.9 | 850.05 ± 1.4 | 0.412 ± 0.024
353.15 K, x2 = 0 | 1098.76 ± 1.2 | 2.274 ± 0.1
353.15 K, x2 = 0.0997 | 1070.98 ± 0.99 | 1.804 ± 0.084
353.15 K, x2 = 0.1857 | 1047.73 ± 0.84 | 1.505 ± 0.071
353.15 K, x2 = 0.2987 | 1015.94 ± 0.64 | 1.179 ± 0.057
353.15 K, x2 = 0.3979 | 986.63 ± 0.61 | 0.96 ± 0.048
353.15 K, x2 = 0.4996 | 957.13 ± 0.79 | 0.791 ± 0.04
353.15 K, x2 = 0.5993 | 928.16 ± 0.97 | 0.644 ± 0.034
353.15 K, x2 = 0.701 | 898.81 ± 1.1 | 0.531 ± 0.029
353.15 K, x2 = 0.8004 | 869.48 ± 1.3 | 0.444 ± 0.025
353.15 K, x2 = 0.9 | 839.94 ± 1.5 | 0.377 ± 0.023
